What was measured:
[1] = Example 6 study: pharmacokinetics; conditions: human, in vivo, oral; one patient (FIG. 13)
[2] = system: patients presumed to have NASH; experiment: Phase 2a study: NASH biomarkers (pro-C3, ELF score and its components); format: in vivo, human; conditions: for Enhanced Liver Fibrosis (ELF) Score, Change from Baseline mean / Enhanced Liver Fibrosis (ELF) Score, Value mean: unitless
Experimental: Measures of the effectiveness of miricorilant versus placebo in reducing liver fat were assessed by magnetic resonance imaging (MRI). The change from baseline MRI measurements relative to MRI measurements taken following a course of daily miricorilant or placebo administration were assessed by magnetic resonance imaging-proton density fat fraction (MRI-PDFF). Additionally, effects of miricorilant may be assessed by measuring one or more of the following, either by comparing change from baseline after one or more days of miricorilant administration, or by comparing measurements in patients administered miricorilant versus patients administered placebo: change in liver fat assessed by MRI-PDFF; change in AST, ALT, and gamma-glutamyl transferase (GGT); change in propeptide of type III collagen (pro-C3); change in enhanced liver fibrosis (ELF) score and its components (hyaluronic acid, tissue inhibitor of metalloproteinases-1 [TIMP-1], type III procollagen [PIIINP]); change in ACTH, serum cortisol, and serum aldosterone (pharmacodynamic assessments); change in Homeostatic Model Assessment of Insulin Resistance (HOMA-IR); change in absolute body weight; and other measurements. […] For patients with diabetes, change in HbA1c and change in fasting blood glucose may be measured to assess the effects of miricorilant. Change in blood pressure may be measured in patients with high blood pressure to assess the effects of miricorilant. Pharmacokinetic (PK) parameters were estimated from steady state plasma concentrations of miricorilant.
NASH biomarkers include AST, ALT, GGT, pro-C3, ELF score and its components (hyaluronic acid, TIMP-1, PIIINP). Blood for measuring levels of AST, ALT, and GGT (as part of the chemistry panel) will be collected. Small fragments of collagen, called propeptides, are released during fibrosis. Pro-C3 is the propeptide of type III collagen and detection of pro-C3 is anticipated to reflect the formation of new fibrotic tissue in the liver (Vilar-Gomez and Chalasani 2018). Blood samples for measuring pro-C3 were collected. […] Each of these markers is measured by an immunoassay and an ELF score is generated, from which a level of fibrosis severity can be determined.
(Units are nanograms per milliliter (ng/mL) except for the enhanced liver fibrosis score (ELF), which is unitless.)

[3] = system: patients with presumed NASH; experiment: Example 6 study: transaminases and safety laboratory values; format: in vivo, human
Experimental: This study was a double-blind, multi-center, placebo-controlled, randomized 3-arm phase 2a study (NCT03823703) conducted to assess the safety and efficacy of miricorilant in reducing liver fat content (LFC) in patients with presumed NASH. Adult patients (18-75 years) with presumed NASH were randomized 1:1:1 to miricorilant 600 mg daily, miricorilant 900 mg daily, or placebo for 12 weeks. […] Abbreviations used in this Example and in the Figures include: ALP, alkaline phosphatase; ALT, alanine aminotransferase; AST, aspartate aminotransferase; ELF, enhanced liver fibrosis; LFC, liver fat content; NASH, non-alcoholic steatohepatitis; ULN, upper limit of normal; AUC, area under the concentration-time curve; Cmax, maximum concentration; EOT, end of treatment; GGT, gamma-glutamyltransferase; INR, international normalized ratio; MRI-PDFF, magnetic resonance imaging-proton density fat fraction; pt, patient; SD, standard deviation; ULN, upper limit of normal; Wk, week.
Key inclusion criteria included that the patients be adults between 18-75 years old; be presumed to suffer from NASH with fibrosis; have LFC as measured by MRI-PDFF≥8%; have levels of AST<5×ULN and ALT<5×ULN; and have eGFR>60 mL/min/1.73 m^2. Primary endpoints included relative change in LFC from baseline by MRI-PDFF. Secondary endpoints included change from baseline in AST, ALT, GGT, and change from baseline in ELF score.
Patients were divided into different cohorts and received different regimens of miricorilant. The cohorts included patients receiving 30 mg mircorilant once per day; patients receiving 50 mg mircorilant once per day; patients receiving 100 mg mircorilant once per day; patients receiving 150 mg mircorilant once per day; patients receiving 100 mg mircorilant on Mondays, Wednesdays, and Fridays; patients receiving 100 mg mircorilant on Mondays and Fridays; and patients receiving 200 mg mircorilant once per week. Patients receiving 100 mg mircorilant on Mondays and Fridays were termed “Cohort 6”.
FIG. 13 provides a plot of MRI-PDFF (top line beginning at week 0) and liver enzyme alanine aminotransferase (ALT; bottom line beginning at week 0) for a patient who received miricorilant treatment that included a cessation of miricorilant treatment from week 7 to week 10. […] GGT was elevated at baseline (peak 88 U/L at Wk 10); at other weeks it was below baseline. Eosinophils (%) baseline 7.3, decreased to 2.2 at Wk 2 and increased Wk 3 (peak 4.3), decreased Wk 8 (2.0) and stable until EOT.

- AUC [1]: 5900 ng·h/mL
- Cmax [1]: 404 ng/mL
SMILES: O=c1[nH]c(=O)c(Cc2cccc(C(F)(F)F)c2)c([C@H]2CC[C@H](c3ccccc3)CC2)[nH]1 [miricorilant, (E)-6-(4-Phenylcyclohexyl)-5-(3-trifluoromethylbenzyl)-1H-pyrimidine-2,4-dione]
- Hyaluronic Acid, Change from Baseline mean ([2]; 600 mg Miricorilant (N = 5)): -17.8 ng/mL
- Hyaluronic Acid, Value mean ([2]; 600 mg Miricorilant (N = 5)): 70.7 ng/mL
- Propeptide of Type III Collagen (pro-C3), Change from Baseline mean ([2]; 600 mg Miricorilant (N = 5)): 0.5 ng/mL
- Propeptide of Type III Collagen (pro-C3), Value mean ([2]; 600 mg Miricorilant (N = 5)): 10.7 ng/mL
- Tissue Inhibitor of Metalloproteinases-1 (TIMP-1), Change from Baseline mean ([2]; 600 mg Miricorilant (N = 5)): 3.2 ng/mL
- Tissue Inhibitor of Metalloproteinases-1 (TIMP-1), Value mean ([2]; 600 mg Miricorilant (N = 5)): 249.5 ng/mL
- Type III Procollagen (PIIINP), Change from Baseline mean ([2]; 600 mg Miricorilant (N = 5)): -0.17 ng/mL
- Type III Procollagen (PIIINP), Value mean ([2]; 600 mg Miricorilant (N = 5)): 9.3 ng/mL
- Enhanced Liver Fibrosis (ELF) Score, Change from Baseline mean ([2]; 600 mg Miricorilant (N = 5)): −0.05
- Enhanced Liver Fibrosis (ELF) Score, Value mean ([2]; 600 mg Miricorilant (N = 5)): 9.4
- Hyaluronic Acid, Change from Baseline mean ([2]; 900 mg Miricorilant (N = 3)): -50.0 ng/mL
- Hyaluronic Acid, Value mean ([2]; 900 mg Miricorilant (N = 3)): 110.9 ng/mL
- Propeptide of Type III Collagen (pro-C3), Change from Baseline mean ([2]; 900 mg Miricorilant (N = 3)): -7.9 ng/mL
- Propeptide of Type III Collagen (pro-C3), Value mean ([2]; 900 mg Miricorilant (N = 3)): 24.1 ng/mL
- Tissue Inhibitor of Metalloproteinases-1 (TIMP-1), Change from Baseline mean ([2]; 900 mg Miricorilant (N = 3)): -79.4 ng/mL
- Tissue Inhibitor of Metalloproteinases-1 (TIMP-1), Value mean ([2]; 900 mg Miricorilant (N = 3)): 402.1 ng/mL
- Type III Procollagen (PIIINP), Change from Baseline mean ([2]; 900 mg Miricorilant (N = 3)): -5.35 ng/mL
- Type III Procollagen (PIIINP), Value mean ([2]; 900 mg Miricorilant (N = 3)): 17.7 ng/mL
- Enhanced Liver Fibrosis (ELF) Score, Change from Baseline mean ([2]; 900 mg Miricorilant (N = 3)): −0.90
- Enhanced Liver Fibrosis (ELF) Score, Value mean ([2]; 900 mg Miricorilant (N = 3)): 10.6
- Hepatic transaminase levels ([3]; 100 mg twice weekly, over 12 weeks): without an associated rise
- Safety and tolerability ([3]; including 100 mg twice weekly): safe, well tolerated
- Eosinophils (%) ([3]; one patient (FIG. 13), Wk 2, baseline 7.3): 2.2%
- Eosinophils (%) peak ([3]; one patient (FIG. 13), Wk 3): 4.3%
- Eosinophils (%) ([3]; one patient (FIG. 13), Wk 8, stable until EOT): 2.0%
- GGT peak ([3]; one patient (FIG. 13), Wk 10, elevated at baseline): 88 U/L
- Total bilirubin, direct bilirubin, ALP, INR ([3]; one patient, treatment ceased from week 7 to week 10 (FIG. 13)): within normal limits
- Rise in ALT>3×ULN, intermittent compared to daily dosing ([3]; responders receiving intermittent miricorilant, all cohorts): less likely to have a rise in ALT>3×ULN
- Transaminase levels ([3]; treatment non-responders (FIG. 10)): did not experience a rise
